# Results as given in PubChem BioAssay AID602323 (The Scripps Research Institute Molecular Screening Center, 2012).
# The source made the active and inactive calls. How the calls were made is not given here.
# How the values were obtained:
# Experiment in all cases: serine hydrolase inhibition in mouse brain membranes, late-stage follow-up, selectivity assay for DAGLb inhibitor project, biochemical, gel-based competitive ABPP, fluorescence, set 2 (AID 602323)
# [1] = molecular target: Diacylglycerol lipase-beta (Mus musculus) (UniProt Q91WC9); conditions: mouse brain membrane, DAGLb, at 1 µM, hits give high values
# Chain of Diacylglycerol lipase-beta (Mus musculus) (Q91WC9 whole entry, looked up): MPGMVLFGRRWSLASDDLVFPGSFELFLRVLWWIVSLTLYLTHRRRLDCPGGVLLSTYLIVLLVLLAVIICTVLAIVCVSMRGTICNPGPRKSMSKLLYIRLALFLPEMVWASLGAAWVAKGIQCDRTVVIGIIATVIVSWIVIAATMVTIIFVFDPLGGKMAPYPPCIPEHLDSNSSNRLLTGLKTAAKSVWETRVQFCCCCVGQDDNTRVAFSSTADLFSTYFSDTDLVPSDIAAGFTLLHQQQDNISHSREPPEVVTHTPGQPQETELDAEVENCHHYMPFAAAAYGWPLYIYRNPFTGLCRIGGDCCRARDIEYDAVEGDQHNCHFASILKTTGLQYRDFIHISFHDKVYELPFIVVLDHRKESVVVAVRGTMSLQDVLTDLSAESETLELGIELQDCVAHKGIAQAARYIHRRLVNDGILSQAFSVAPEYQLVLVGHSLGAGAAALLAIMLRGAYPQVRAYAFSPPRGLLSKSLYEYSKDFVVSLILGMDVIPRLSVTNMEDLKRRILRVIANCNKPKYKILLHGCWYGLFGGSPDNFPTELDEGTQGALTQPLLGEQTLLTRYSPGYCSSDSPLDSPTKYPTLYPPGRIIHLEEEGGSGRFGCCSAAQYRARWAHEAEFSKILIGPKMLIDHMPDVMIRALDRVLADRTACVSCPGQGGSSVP
# [2] = molecular target: Monoacylglycerol lipase ABHD6 (Mus musculus) (UniProt Q8R2Y0); conditions: mouse brain membrane, at 1 µM, hits give high values
# Chain of Monoacylglycerol lipase ABHD6 (Mus musculus) (Q8R2Y0 whole entry, looked up): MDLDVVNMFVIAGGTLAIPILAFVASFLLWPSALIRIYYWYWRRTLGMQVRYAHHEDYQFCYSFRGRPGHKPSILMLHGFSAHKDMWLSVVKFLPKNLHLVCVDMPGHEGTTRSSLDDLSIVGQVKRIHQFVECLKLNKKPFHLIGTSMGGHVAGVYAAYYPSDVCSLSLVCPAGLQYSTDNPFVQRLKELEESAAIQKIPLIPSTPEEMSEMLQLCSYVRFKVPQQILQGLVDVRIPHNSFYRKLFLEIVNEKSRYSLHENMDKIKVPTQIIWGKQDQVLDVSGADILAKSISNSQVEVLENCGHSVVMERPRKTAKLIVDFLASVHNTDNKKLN
# [3] = molecular target: Platelet-activating factor acetylhydrolase (Mus musculus) (UniProt Q60963); conditions: mouse brain membrane, PLA2G7, at 1 µM, hits give high values
# Chain of Platelet-activating factor acetylhydrolase (Mus musculus) (Q60963 whole entry, looked up): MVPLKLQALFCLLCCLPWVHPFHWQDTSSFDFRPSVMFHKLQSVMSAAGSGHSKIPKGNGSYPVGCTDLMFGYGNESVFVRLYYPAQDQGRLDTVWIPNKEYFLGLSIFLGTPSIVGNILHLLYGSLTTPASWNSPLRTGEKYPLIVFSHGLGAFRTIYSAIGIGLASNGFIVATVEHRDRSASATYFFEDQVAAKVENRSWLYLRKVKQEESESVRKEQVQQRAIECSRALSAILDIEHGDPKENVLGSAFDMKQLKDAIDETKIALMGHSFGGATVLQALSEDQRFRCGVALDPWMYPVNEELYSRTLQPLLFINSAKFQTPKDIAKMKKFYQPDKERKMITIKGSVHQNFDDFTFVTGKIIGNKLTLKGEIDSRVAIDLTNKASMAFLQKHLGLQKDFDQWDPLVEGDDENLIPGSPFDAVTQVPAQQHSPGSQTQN
Compound,inhibition [1],inhibition [2] [%],inhibition [3]
CC(C)CN(CCc1ccccc1)C(=O)n1cc(-c2ccc(OC(F)(F)F)cc2)nn1,90%,95,95%
O=C(N1CCCCC1Cc1ccccc1)n1cc(-c2ccc(-c3ccc(C(F)(F)F)cc3)cc2)nn1 (stereo not given),25% (inactive),80,50%
O=C(N1CCCCC1Cc1ccccc1)n1cc(-c2ccc(-c3ccccc3Cl)cc2)nn1 (stereo not given),90%,90,90%
O=C(N1CCCCC1Cc1ccccc1)n1cc(-c2ccc(-c3ccc(OC(F)(F)F)cc3)cc2)nn1 (stereo not given),20% (inactive),90,50%
O=C(N1CCCCC1Cc1ccccc1)n1cc(-c2ccc(Br)cc2)nn1 (stereo not given),85%,98,95%
O=C(N1CCCCC1Cc1ccccc1)n1ncc(C(O)(c2ccccc2)c2ccccc2)n1 (stereo not given),80%,90,0% (inactive)
O=C(N1CCCCC1Cc1ccccc1)n1cc(-c2ccc(-c3ccc4c(c3)OCO4)cc2)nn1 (stereo not given),25% (inactive),90,20% (inactive)
O=C(N1CCCCC1Cc1ccccc1)n1cc(-c2cccc(-c3ccccc3)c2)nn1 (stereo not given),75%,95,30% (inactive)
O=C(N1CCCCC1Cc1ccccc1)n1cc(-c2ccc(-c3ccccc3)cc2)nn1 (stereo not given),80%,95,40% (inactive)
O=C(N1CCCCC1Cc1ccccc1)n1cc(-c2ccc(-c3ccccc3OC(F)(F)F)cc2)nn1 (stereo not given),80%,95,60%
O=C(N1CCCCC1Cc1ccccc1)n1cc(-c2ccc(-c3ccoc3)cc2)nn1 (stereo not given),60%,90,45% (inactive)
Cc1ccccc1-c1ccc(-c2cn(C(=O)N3CCCCC3Cc3ccccc3)nn2)cc1 (stereo not given),80%,90,80%
COc1ccccc1-c1ccc(-c2cn(C(=O)N3CCCCC3Cc3ccccc3)nn2)cc1 (stereo not given),85%,95,25% (inactive)
O=C(N1CCCCC1Cc1ccccc1)n1cc(-c2ccc(-c3cccc(C(F)(F)F)c3)cc2)nn1 (stereo not given),45% (inactive),95,25% (inactive)
O=C(c1ccc(-c2ccc(-c3cn(C(=O)N4CCCCC4Cc4ccccc4)nn3)cc2)cc1)N1CCCCC1 (stereo not given),20% (inactive),90,0% (inactive)
O=C(N1CCCCC1Cc1ccccc1)n1ncc(-c2ccc(OC(F)(F)F)cc2)n1 (stereo not given),50%,70,90%
O=C(N1CCCCC1Cc1ccccc1)n1cc(-c2ccc(-c3ccccc3CO)cc2)nn1 (stereo not given),90%,95,20% (inactive)
O=C(N(CCc1ccccc1)Cc1ccco1)n1cc(-c2ccc(OC(F)(F)F)cc2)nn1,95%,95,95%
O=C(N1CCCCC1Cc1ccccc1)n1cc(-c2ccc(-c3ccccc3C(F)(F)F)cc2)nn1 (stereo not given),75%,90,25% (inactive)
O=C(N1CCCCC1Cc1ccccc1)n1cc(-c2ccc(-c3cccc(CO)c3)cc2)nn1 (stereo not given),25% (inactive),90,0% (inactive)
CC(C)(C)OC(=O)NCCCCCN(CCc1ccccc1)C(=O)n1cc(-c2ccc(OC(F)(F)F)cc2)nn1,95%,90,95%
O=C(N1CCCCC1Cc1ccccc1)n1cc(-c2cc(F)cc(F)c2)nn1 (stereo not given),85%,98,95%
O=C(N1CCCCC1Cc1ccccc1)n1cc(-c2ccc(OC(F)(F)F)cc2)nn1 (stereo not given),90%,90,90%
O=C(c1ccc(-c2cn(C(=O)N3CCCCC3Cc3ccccc3)nn2)cc1)N1CCCCC1 (stereo not given),95%,95,30% (inactive)
O=C(N1CCCCC1Cc1ccccc1)n1cc(-c2ccccc2-c2ccccc2)nn1 (stereo not given),75%,95,40% (inactive)
